Reference: patent US20260337153A1, “IONIZABLE AMINE LIPIDS” (Intellia Therapeutics, Inc., priority 2023, published 2026)

System: rat TTR gene
Experiment: In vivo editing of TTR in rat liver after LNP delivery (NGS, % editing)
Parameters: species or system rat (Sprague-Dawley)
Conditions: for Mean % editing in rat liver: NGS, dose 0.03 mpk, LNP with G000534 sgRNA and Cas9 mRNA 1:2 w/w, 3% C13 Ether (Compound 53: 3% PEG2K-DMG), N=5 (Compound 33: N=4)
Procedure: LNPs were prepared using various amine lipids in a 4-component lipid system consisting of an ionizable lipid (e.g., an amine lipid), DSPC, cholesterol and a PEG lipid (e.g., PEG2K-DMG, C13 Ether, C14 Ether). In assays for percent liver editing in rats, Cas9 mRNA and chemically modified sgRNA targeting a rat sequence were formulated in LNPs, at either a 1:1 w/w ratio or a 1:2 w/w sgRNA:Cas9 mRNA ratio.
The lipid components were dissolved in 100% ethanol with the lipid component molar ratios described below. The chemically modified sgRNA and Cas9 mRNA were combined and dissolved in 25 mM citrate, 100 mM NaCl, pH 5.0, resulting in a concentration of total RNA cargo of approximately 0.45 mg/mL. The LNPs were formulated with an N:P ratio of about 6, with the ratio of chemically modified sgRNA:Cas9 mRNA at either a 1:1 or 1:2 w/w ratio as described below.
The LNPs were formed by an impinging jet mixing of the lipid in ethanol with two volumes of RNA solution and one volume of water. First, the lipid in ethanol is mixed through a mixing cross with the two volumes of RNA solution. Then, a fourth stream of water is mixed with the outlet stream of the cross through an inline tee. (See, e.g., WO2016010840, FIG. 2). The LNPs were held for 1 hour at room temperature, and further diluted with water (approximately 1:1 v/v). Diluted LNPs were buffer exchanged into 50 mM Tris, 45 mM NaCl, 5% (w/v) sucrose, pH 7.5 (TSS) and concentrated as needed by methods known in the art. The resulting mixture was then filtered using a 0.2 μm sterile filter. The final LNP was stored at 4° C. or −80° C. until further use.
Sprague-Dawley female rats, ranging from 6-10 weeks of age were used in each study. Animals were weighed and dosed based on individual body weight measured the morning of dosing. LNPs were dosed via the lateral tail vein in a volume of 2 mL per kilogram of animal body weight. The animals were periodically observed for adverse effects for at least 24 hours post dose.
For studies measuring in vivo editing in liver, Sprague-Dawley female rats were dosed at 0.1 mpk or 0.03 mpk, unless otherwise noted. Animals were euthanized at 6 or 7 days by carbon dioxide asphyxiation and a heart clip or by ex sanguination via cardiac puncture under isoflourane anesthesia. Blood was collected into serum separator tubes. Liver tissue was collected. Genomic DNA was isolated from the liver tissue for editing measurement by Next-Generation Sequencing (NGS).
In brief, to quantitatively determine the efficiency of editing at the target location in the genome, genomic DNA was isolated and deep sequencing was utilized to identify the presence of insertions and deletions introduced by gene editing.
PCR primers were designed around the target site (e.g., TTR), and the genomic area of interest was amplified. Additional PCR was performed according to the manufacturer's protocols (Illumina) to add the necessary chemistry for sequencing. The amplicons were sequenced on an Illumina MiSeq instrument. The reads were aligned to the […] after eliminating those having low quality scores. The resulting files containing the reads were mapped to the reference genome (BAM files), where reads that overlapped the target region of interest were selected and the number of wild type reads versus the number of reads which contain an insertion, substitution, or deletion was calculated.
The editing percentage (e.g., the “indel efficiency” or “percent indels” or “% editing” or “% indel”) can be defined as the total number of sequence reads with insertions or deletions over the total number of sequence reads, including wild type.
In vivo editing efficiency for materials delivered with formulations including various amine lipid (or ionizable lipid) compounds in Experiments 1 through 14 as described in Tables 3 and 4 was assessed. Editing was measured using G000534 (SEQ ID NO: 5) which targets the rat TTR gene. […]

[1] = Experiment 1, 0.1 mpk, LNP with PEG2K-DMG
[2] = Experiment 2, 0.1 mpk, LNP with PEG2K-DMG
[3] = Experiment 4, 0.1 mpk, LNP with PEG2K-DMG
[4] = Experiment 5, 0.1 mpk, LNP with PEG2K-DMG
[5] = Experiment 6, 0.1 mpk, LNP with PEG2K-DMG
[6] = Experiment 7, 0.1 mpk, LNP with PEG2K-DMG
[7] = Experiment 8, 0.1 mpk, LNP with PEG2K-DMG
[8] = Experiment 9, 0.1 mpk, LNP with PEG2K-DMG
[9] = Experiment 10, 0.1 mpk, LNP with PEG2K-DMG
[10] = Experiment 11, 0.1 mpk, LNP with PEG2K-DMG
[11] = Experiment 13, 0.03 mpk, LNP with PEG2K-DMG

CCCCC/C=C\C/C=C\CCCCCCCC(=O)OCC(COC(=O)CCC(OCCCCCCCC)OCCCCCCCC)COC(=O)OCCCN(CC)CC (centres unmarked) [Compound 53]
Mean % editing [1]: 38.6%
Mean % editing [2]: 55.2%
Mean % editing (Experiment 3, 0.1 mpk, LNP with PEG2K-DMG): 41.4%
Mean % editing [3]: 41.8%
Mean % editing [4]: 42.8%
Mean % editing [5]: 47.1%
Mean % editing [6]: 31.5%
Mean % editing [7]: 47.8%
Mean % editing [8]: 42.6%
Mean % editing [9]: 44.2%
Mean % editing [10]: 42.0%
Mean % editing [11]: 8.5%
Mean % editing in rat liver: 9.9%
Mean % editing (Table 6, 0.03 mpk, PEG lipid C13 Ether): 7.5%
Mean % editing (Table 6, 0.03 mpk, PEG lipid C14 Ether): 4.2%
Mean % editing (Table 6, 0.03 mpk, PEG lipid PEG2K-DMG): 9.6%

CCCCC/C=C\C/C=C\CCCCCCCC(=O)OCC(COC(=O)CCCC(=O)OC(CCCCCCCC)CCCCCCCC)COC(=O)OCCCN(CC)CC (centres unmarked) [Compound 56]
Mean % editing [2]: 50.9%
Mean % editing [9]: 53.0%

CCCCC/C=C\C/C=C\CCCCCCCCC(COC(=O)CCCCCC(=O)OC(CCCCCCCC)CCCCCCCC)COC(=O)NCCN(CC)CC (centres unmarked) [Compound 23, 1-((11Z,14Z)-2-((((2-(diethylamino)ethyl)carbamoyl)oxy)methyl)icosa-11,14-dien-1-yl) 7-(heptadecan-9-yl) heptanedioate]
Mean % editing [5]: 55.3%
Mean % editing [10]: 54.0%

CCCCC/C=C\C/C=C\CCCCCCCC(=O)OCC(COC(=O)CCCCCC(=O)OC(CCCCCCCC)CCCCCCCC)COC(=O)NCCN(CC)CC (centres unmarked) [Compound 59]
Mean % editing [1]: 36.7%
Mean % editing [2]: 53.4%

CCCCCCCCC(CCCCCCCC)OC(=O)CCCC(=O)OCC(COC(=O)CCCC(=O)OC(CCCCCCCC)CCCCCCCC)OC(=O)NCCN(CC)CC [Compound 35, O,O′-(2-(((2-(diethylamino)ethyl)carbamoyl)oxy)propane-1,3-diyl) di(heptadecan-9-yl) diglutarate]
Mean % editing (Experiment 14, 0.03 mpk, LNP with C13 Ether): 10.3%

CCCCC/C=C\C/C=C\CCCCCCCC(=O)OCC(CCCCCCCCC(=O)OC(CCCCCCCC)CCCCCCCCC)COC(=O)CCC(CCCCCCCC)OC(=O)NCCN1CCCC1 (centres unmarked) [Compound 25, 11-(octadecan-9-yloxy)-11-oxo-2-(((4-(((2-(pyrrolidin-1-yl)ethyl)carbamoyl)oxy)dodecanoyl)oxy)methyl)undecyl (9Z,12Z)-octadeca-9,12-dienoate]
Mean % editing [4]: 17.0%

CCCCCCCCC(CCCCCCCC)OC(=O)CCCCCCC(=O)OCC(CC)(COC(=O)CCCCCCC(=O)OC(CCCCCCCC)CCCCCCCC)COC(=O)OCCCN1CCCC1 [Compound 67, O′1,O1-(2-ethyl-2-((((3-(pyrrolidin-1-yl)propoxy)carbonyl)oxy)methyl)propane-1,3-diyl) 8,8′-di(heptadecan-9-yl) di(octanedioate)]
Mean % editing in rat liver: 1.6%

CCCCCCCCC(CCCCCCCC)OC(=O)CCCCCC(=O)OCC(CCCCCCCCC(=O)OCC(CCCC)CCCCCC)COC(=O)NCCN(CC)CC (centres unmarked) [Compound 51, 1-(11-((2-butyloctyl)oxy)-2-((((2-(diethylamino)ethyl)carbamoyl)oxy)methyl)-11-oxoundecyl) 7-(heptadecan-9-yl) heptanedioate]
Mean % editing [10]: 60.0%

CCCCC/C=C\C/C=C\CCCCCCCC(=O)OCC(CCCCC(=O)OC(CCCC)CCCC)COC(=O)NCCN(CC)CC (centres unmarked) [Compound 12, 2-((((2-(diethylamino)ethyl)carbamoyl)oxy)methyl)-7-(nonan-5-yloxy)-7-oxoheptyl (9Z,12Z)-octadeca-9,12-dienoate]
Mean % editing [3]: 11.6%

CCCCCCCCC(CCCCCCCC)OC(=O)CCCCC(=O)OCC(COC(=O)CCCCC(=O)OC(CCCCCCCC)CCCCCCCC)COC(=O)NCCN(CC)CC [Compound 68, O,O′-(2-((((2-(diethylamino)ethyl)carbamoyl)oxy)methyl)propane-1,3-diyl) di(heptadecan-9-yl) diadipate]
Mean % editing in rat liver: 17.1%

CCCCCCCCC(CCCCCCCC)OC(=O)CCCC(=O)OCC(COC(=O)CCCC(=O)OC(CCCCCCCC)CCCCCCCC)COC(=O)NCCN1CCCC1 [Compound 29, di(heptadecan-9-yl) O,O′-(2-((((2-(pyrrolidin-1-yl)ethyl)carbamoyl)oxy)methyl)propane-1,3-diyl) diglutarate]
Mean % editing (Experiment 12, 0.04 mpk, LNP with PEG2K-DMG): 27.3%

CCCCC/C=C\C/C=C\CCCCCCCC(=O)OCC(CCCCC(=O)OC(CCCC)CCCC)COC(=O)OCCCN(CC)CC (centres unmarked) [Compound 14, 2-((((3-(diethylamino)propoxy)carbonyl)oxy)methyl)-7-(nonan-5-yloxy)-7-oxoheptyl (9Z,12Z)-octadeca-9,12-dienoate]
Mean % editing [3]: 16.8%

CCCCCCCCC(CCCCCCCC)OC(=O)CCCCCC(=O)OCC(COC(=O)CCCCCC(=O)OC(CCCCCCCC)CCCCCCCC)COC(=O)OCCCN(CC)CC [Compound 3, O′1,O1-(2-((((3-(diethylamino)propoxy)carbonyl)oxy)methyl)propane-1,3-diyl) 7,7′-di(heptadecan-9-yl) di(heptanedioate)]
Mean % editing [2]: 53.0%

CCCCCCCCC(CCCCCCCC)OC(=O)CCCCCCC(=O)OCC(COC(=O)CCCCCCC(=O)OC(CCCCCCCC)CCCCCCCC)COC(=O)NCCN(CC)CC [Compound 52, O′1,O1-(2-((((2-(diethylamino)ethyl)carbamoyl)oxy)methyl)propane-1,3-diyl) 8,8′-di(heptadecan-9-yl) di(octanedioate)]
Mean % editing [11]: 9.0%
Mean % editing in rat liver: 11.9%
Mean % editing (Table 8, 0.03 mpk, LNP with C13 Ether): 7.0%

CCCCC/C=C\C/C=C\CCCCCCCC(=O)OCC(CCCCC(=O)OC(CCCCCCCC)CCCCCCCC)COC(=O)OCCCN(CC)CC (centres unmarked) [Compound 15, 2-((((3-(diethylamino)propoxy)carbonyl)oxy)methyl)-7-(heptadecan-9-yloxy)-7-oxoheptyl (9Z,12Z)-octadeca-9,12-dienoate]
Mean % editing [8]: 15.1%

CCCCCCCCOC(CCC(=O)OCC(COC(=O)CCC(OCCCCCCCC)OCCCCCCCC)COC(=O)NCCN(CC)CC)OCCCCCCCC [Compound 22, 2-((((2-(diethylamino)ethyl)carbamoyl)oxy)methyl)propane-1,3-diyl bis(4,4-bis(octyloxy)butanoate)]
Mean % editing [7]: 61.3%

CCCCC/C=C\C/C=C\CCCCCCCC(=O)OCC(CCCCCCCCC(=O)OC(CCCCCC)CCCCCC)COC(=O)OCCCN(CC)CC (centres unmarked) [Compound 19, 2-((((3-(diethylamino)propoxy)carbonyl)oxy)methyl)-11-oxo-11-(tridecan-7-yloxy)undecyl (9Z,12Z)-octadeca-9,12-dienoate]
Mean % editing [8]: 14.4%

CCCCCCCCOC(CCC(=O)OCC(COC(=O)NCCN(CC)CC)COC(=O)C(CCCC)CCCCCC)OCCCCCCCC (centres unmarked) [Compound 48, 3-((4,4-bis(octyloxy)butanoyl)oxy)-2-((((2-(diethylamino)ethyl)carbamoyl)oxy)methyl)propyl 2-butyloctanoate]
Mean % editing [6]: 55.0%

CCCCC/C=C\C/C=C\CCCCCCCC(=O)OCC(COC(=O)CCCC(=O)OC(CCCCCCCC)CCCCCCCC)COC(=O)NCCN(CC)CC (centres unmarked) [Compound 58]
Mean % editing [1]: 44.7%
Mean % editing [2]: 60.4%
Mean % editing [9]: 56.5%
